From BindingDB's records for doi:10.1021/jm021012t (F. Hoffmann-La Roche, 2003)

Experiments:
[1] = molecular target: T1, P-glycoprotein (ABCB1, MDR1) (Homo sapiens, UniProt P08183); experiment: TP_TRANSPORTER: inhibition of Calcein-AM efflux in MDR1-expressing LLC-PK1 cells; details: probe calcein-AM
[2] = molecular target: T1, P-glycoprotein (ABCB1, MDR1); experiment: Inhibition of P-glycoprotein, human L-MDR1 expressed in LLC-PK1 epithelial cells using calcein-AM polarisation assay; details: LLC-PK1 epithelial cells expressing human MDR1 (L-MDR1), probe calcein-AM

T1 sequence (P08183 whole entry): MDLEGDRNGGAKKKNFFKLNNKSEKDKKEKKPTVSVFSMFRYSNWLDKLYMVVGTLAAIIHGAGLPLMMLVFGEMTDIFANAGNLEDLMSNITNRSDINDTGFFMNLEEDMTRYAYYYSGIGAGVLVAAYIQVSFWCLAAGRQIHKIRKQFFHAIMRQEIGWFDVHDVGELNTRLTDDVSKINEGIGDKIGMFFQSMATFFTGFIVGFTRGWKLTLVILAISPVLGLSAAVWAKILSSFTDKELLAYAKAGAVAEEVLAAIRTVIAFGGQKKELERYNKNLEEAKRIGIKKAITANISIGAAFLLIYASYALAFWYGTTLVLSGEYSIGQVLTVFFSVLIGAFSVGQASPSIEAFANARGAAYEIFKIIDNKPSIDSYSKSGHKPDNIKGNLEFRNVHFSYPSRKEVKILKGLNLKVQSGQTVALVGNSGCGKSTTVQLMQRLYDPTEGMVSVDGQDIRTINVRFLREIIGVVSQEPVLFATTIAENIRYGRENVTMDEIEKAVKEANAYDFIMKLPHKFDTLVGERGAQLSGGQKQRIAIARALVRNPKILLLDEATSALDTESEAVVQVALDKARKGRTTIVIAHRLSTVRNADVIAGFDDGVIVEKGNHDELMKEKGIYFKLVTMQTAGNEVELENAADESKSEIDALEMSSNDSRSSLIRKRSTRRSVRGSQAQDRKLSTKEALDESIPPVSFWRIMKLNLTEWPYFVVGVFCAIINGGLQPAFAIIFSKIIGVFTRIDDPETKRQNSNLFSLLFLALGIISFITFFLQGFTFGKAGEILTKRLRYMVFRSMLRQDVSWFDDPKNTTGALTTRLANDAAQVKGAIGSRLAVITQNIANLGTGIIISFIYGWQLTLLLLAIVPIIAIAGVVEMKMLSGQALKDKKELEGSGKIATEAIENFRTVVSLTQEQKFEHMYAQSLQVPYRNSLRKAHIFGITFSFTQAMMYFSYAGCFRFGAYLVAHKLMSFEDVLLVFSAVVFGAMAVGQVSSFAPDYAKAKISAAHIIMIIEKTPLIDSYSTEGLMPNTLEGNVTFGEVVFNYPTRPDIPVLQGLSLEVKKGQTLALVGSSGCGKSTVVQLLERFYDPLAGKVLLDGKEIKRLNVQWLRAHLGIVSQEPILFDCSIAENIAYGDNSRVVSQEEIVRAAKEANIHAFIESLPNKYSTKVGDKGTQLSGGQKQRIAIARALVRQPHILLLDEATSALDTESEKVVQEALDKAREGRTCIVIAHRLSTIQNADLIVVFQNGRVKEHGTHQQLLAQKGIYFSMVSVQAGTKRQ

Question: With `CC[C@H](C)[C@H]1O[C@]2(CC[C@@H]1C)C[C@@H]1C[C@@H](C/C=C(\C)[C@@H](O[C@H]3C[C@H](OC)[C@@H](O[C@H]4C[C@H](OC)[C@@H](O)[C@H](C)O4)[C@H](C)O3)[C@@H](C)/C=C/C=C3\CO[C@@H]4[C@H](O)C(C)=C[C@@H](C(=O)O1)[C@]34O)O2` [ABAMECTIN] as the molecule, how does the IC50 [1] read?
Answer: 100 nM

Question: What about the IC50 [2] of the same molecule?
Answer: 100 nM
